In article PMC4078991 (Nature, 2014):

Experiments:
PANX1-GFP = experiment: Proteolytic cleavage of PANX1-GFP during apoptosis; type: cell-based; conditions: 500 μM
apoptotic Jurkat cells [1] = experiment: Time-lapse microscopy of apoptotic cell morphology; type: cell-based; conditions: time-lapse imaging
apoptotic Jurkat cells [2] = experiment: Formation of apoptotic bodies from apoptotic Jurkat cells; type: cell-based; conditions: for formation of apoptotic bodies: Jurkat cells, anti-Fas induced apoptosis; for formation of apoptotic bodies in Jurkat cells expressing PANX1 DN mutant: inhibitors of blebbing
PANX1 [3] = target: T1, PANX1 (Homo sapiens, UniProt Q96RD7); type: cell-based; conditions: Jurkat cells 2h anti-Fas, trovafloxacin 20 μM; for effect on outward current of apoptotic cells: at +80mV; for effect on inward current of apoptotic cells: at -50mV
primary thymocytes = type: cell-based, mouse; conditions: 10 μM
Escherichia coli = experiment: Bacterial growth assay; type: cell-based; conditions: 6h incubation, O.D. at 600 nm
PANX1 [4] = target: T1, PANX1; experiment: TO-PRO-3 uptake by apoptotic Jurkat cells; type: cell-based; conditions: for inhibition of TO-PRO-3 uptake (PANX1-dependent dye uptake) by apoptotic cells: anti-Fas, compound present during apoptosis induction
PANX1 [5] = target: T1, PANX1; experiment: ATP release from apoptotic cells; type: cell-based; conditions: apoptotic Jurkat cells
mouse Panx2 = target: T2, mouse Panx2 (Mus musculus, UniProt Q6IMP4); experiment: Whole-cell patch-clamp of Panx2 current in HEK293T cells; type: cell-based; conditions: 20 μM
T2 sequence (Q6IMP4 1-677): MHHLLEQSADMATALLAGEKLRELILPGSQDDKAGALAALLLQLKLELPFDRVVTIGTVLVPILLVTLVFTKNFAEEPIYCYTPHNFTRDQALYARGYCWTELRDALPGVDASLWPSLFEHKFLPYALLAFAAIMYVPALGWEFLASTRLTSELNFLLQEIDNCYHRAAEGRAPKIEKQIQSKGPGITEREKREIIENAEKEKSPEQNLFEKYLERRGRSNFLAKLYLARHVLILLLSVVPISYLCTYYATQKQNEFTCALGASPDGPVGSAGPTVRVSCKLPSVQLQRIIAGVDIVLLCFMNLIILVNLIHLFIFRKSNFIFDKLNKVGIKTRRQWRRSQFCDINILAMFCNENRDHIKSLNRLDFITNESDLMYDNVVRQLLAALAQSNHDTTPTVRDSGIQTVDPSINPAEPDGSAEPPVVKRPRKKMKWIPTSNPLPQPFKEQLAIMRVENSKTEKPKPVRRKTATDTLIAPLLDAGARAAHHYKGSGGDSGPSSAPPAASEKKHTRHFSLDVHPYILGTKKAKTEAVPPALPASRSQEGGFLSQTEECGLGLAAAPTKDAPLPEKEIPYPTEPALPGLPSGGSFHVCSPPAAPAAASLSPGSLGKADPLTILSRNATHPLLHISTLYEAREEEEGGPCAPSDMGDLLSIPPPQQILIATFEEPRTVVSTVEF

[6] = cited from earlier work
apoptotic thymocytes = experiment: In vivo model of thymic apoptosis; design: species or system mouse; conditions: wild-type mice, administered with dexamethasone
connexin 43 (Cx43) = connexin 43 (Cx43) (Homo sapiens, UniProt P17302); experiment: Whole-cell patch-clamp of Cx43 current in HEK293T cells; type: cell-based; conditions: 20 μM
[7] = cited from earlier work; remark: listed apart in the source
caspase 3/7 = experiment: Caspase 3/7 activation in Jurkat cells undergoing apoptosis; type: cell-based; conditions: trovafloxacin 40 μM

T1 sequence (Q96RD7 1-379 limits assumed): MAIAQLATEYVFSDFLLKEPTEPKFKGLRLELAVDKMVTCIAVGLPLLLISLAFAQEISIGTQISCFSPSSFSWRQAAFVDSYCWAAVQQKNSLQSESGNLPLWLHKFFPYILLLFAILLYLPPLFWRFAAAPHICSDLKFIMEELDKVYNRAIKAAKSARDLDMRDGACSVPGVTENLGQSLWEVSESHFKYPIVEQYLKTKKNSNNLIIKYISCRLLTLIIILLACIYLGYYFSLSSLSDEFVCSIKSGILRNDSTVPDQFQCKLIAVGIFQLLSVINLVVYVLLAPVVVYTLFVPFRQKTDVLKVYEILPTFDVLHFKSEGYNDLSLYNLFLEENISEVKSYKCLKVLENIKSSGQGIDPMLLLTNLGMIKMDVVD
connexin 43 (Cx43), sequence (P17302 2-382 limits assumed, species assumed): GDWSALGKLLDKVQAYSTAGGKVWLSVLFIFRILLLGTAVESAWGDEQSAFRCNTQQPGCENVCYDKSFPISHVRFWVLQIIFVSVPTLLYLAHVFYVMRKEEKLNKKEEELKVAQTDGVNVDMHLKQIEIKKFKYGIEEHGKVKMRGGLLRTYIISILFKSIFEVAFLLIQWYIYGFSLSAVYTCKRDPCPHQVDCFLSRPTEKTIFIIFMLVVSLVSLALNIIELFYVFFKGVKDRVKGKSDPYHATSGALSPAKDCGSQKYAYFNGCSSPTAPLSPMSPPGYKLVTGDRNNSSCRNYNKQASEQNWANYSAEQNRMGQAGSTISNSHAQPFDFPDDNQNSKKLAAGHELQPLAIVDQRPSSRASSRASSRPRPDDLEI

CC1(C)[C@@H](OC(=O)CCC(=O)O)CC[C@]2(C)[C@H]3C(=O)C=C4[C@@H]5C[C@@](C)(C(=O)O)CC[C@]5(C)CC[C@@]4(C)[C@]3(C)CC[C@@H]12 [CBX, carbenoxolone]
proteolytic cleavage of PANX1-GFP during apoptosis (PANX1-GFP): not inhibited
formation of apoptopodia (string-like structures) by apoptotic cells (apoptotic Jurkat cells [1]): produced long string-like structures
formation of apoptotic bodies (apoptotic Jurkat cells [2]): promoted formation of apoptotic bodies
effect on outward current of apoptotic cells (PANX1 [3]): blocked both inward and outward currents
effect on inward current of apoptotic cells (PANX1 [3]): blocked both inward and outward currents

C[C@@H](N)[C@H]1CC[C@H](C(=O)Nc2ccncc2)CC1 [Y-27632]
enhanced formation of apoptotic bodies in apoptotic thymocytes from mice with PANX1 deficiency (primary thymocytes): blunted
formation of apoptotic bodies in Jurkat cells expressing PANX1 DN mutant (apoptotic Jurkat cells [2]): reduce the formation of apoptotic bodies

Cc1ccc2c(c1)C(=O)C1(O)CCN(c3ccccc3)C1=N2 (centres unmarked) [blebbistatin]
formation of apoptotic bodies in Jurkat cells expressing PANX1 DN mutant (apoptotic Jurkat cells [2]): reduce the formation of apoptotic bodies

O=C(O)c1cn(C2CC2)c2cc(N3CCNCC3)c(F)cc2c1=O [ciprofloxacin]
Escherichia coli growth (Escherichia coli): inhibit bacterial growth

C=C1[C@@H](C)[C@H]2[C@H](Cc3ccccc3)NC(=O)[C@]23[C@H](OC(C)=O)/C=C/[C@@](C)(O)C(=O)[C@@H](C)C/C=C/[C@H]3[C@@H]1O [cytochalasin D]
formation of apoptotic bodies in Jurkat cells expressing PANX1 DN mutant (apoptotic Jurkat cells [2]): reduce the formation of apoptotic bodies

CN1CCN(c2cc3c(cc2F)c(=O)c(C(=O)O)cn3-c2ccc(F)cc2)CC1 [difloxacin]
inhibition of TO-PRO-3 uptake (PANX1-dependent dye uptake) by apoptotic cells (PANX1 [4]): partially inhibited ATP release and TO-PRO-3 uptake
formation of apoptotic bodies (apoptotic Jurkat cells [2]): promoted the formation of apoptotic bodies
inhibition of ATP release from apoptotic cells (PANX1 [5]): partially inhibited ATP release

C[C@H]1COc2c(N3CCN(C)CC3)c(F)cc3c(=O)c(C(=O)O)cn1c23 [levofloxacin]
inhibition of TO-PRO-3 uptake (PANX1-dependent dye uptake) by apoptotic cells (PANX1 [4]): did not block PANX1-dependent dye uptake
Escherichia coli growth (Escherichia coli): inhibit bacterial growth

CCCN(CCC)S(=O)(=O)c1ccc(C(=O)O)cc1 [probenecid]
formation of apoptotic bodies (apoptotic Jurkat cells [2]): promoted formation of apoptotic bodies

Cc1ccc(C(=O)Nc2ccc(S(=O)(=O)O)c3cc(S(=O)(=O)O)cc(S(=O)(=O)O)c23)cc1NC(=O)c1cccc(NC(=O)Nc2cccc(C(=O)Nc3cc(C(=O)Nc4ccc(S(=O)(=O)O)c5cc(S(=O)(=O)O)cc(S(=O)(=O)O)c45)ccc3C)c2)c1 [suramin]
formation of apoptotic bodies (apoptotic Jurkat cells [2]): did not enhance formation of apoptotic bodies

NC1CCN(c2nc3c(cc2F)c(=O)c(C(=O)O)cn3-c2ccc(F)cc2F)C1 (centres unmarked) [tosulfoxacin, tosufloxacin]
inhibition of TO-PRO-3 uptake (PANX1-dependent dye uptake) by apoptotic cells (PANX1 [4]): partially inhibited ATP release and TO-PRO-3 uptake
formation of apoptotic bodies (apoptotic Jurkat cells [2]): promoted the formation of apoptotic bodies
inhibition of ATP release from apoptotic cells (PANX1 [5]): partially inhibited ATP release

N[C@@H]1[C@H]2CN(c3nc4c(cc3F)c(=O)c(C(=O)O)cn4-c3ccc(F)cc3F)C[C@@H]12 [trovafloxacin]
inhibition of PANX2 current (mouse Panx2): did not inhibit
concentrations normally achieved in human plasma [6]: 2000 to 10000 nM
inhibition of TO-PRO-3 uptake (PANX1-dependent dye uptake) by apoptotic cells (PANX1 [4]): potent inhibitor of TO-PRO-3 uptake
TO-PRO-3 uptake after acute treatment of cells already undergoing apoptosis (PANX1 [4]; compound added post induction of apoptosis, 20 min): acutely blocked TO-PRO-3 uptake
formation of apoptopodia (string-like structures) by apoptotic cells (apoptotic Jurkat cells [1]): produced long string-like structures
fragmentation of apoptotic thymocytes in vivo (SSC high particles) (apoptotic thymocytes): promoted the fragmentation of the apoptotic thymocytes
inhibition of connexin 43 gap junction current (connexin 43 (Cx43)): did not inhibit
side effects linked to use in patients [7]: serious adverse side effects
formation of apoptotic bodies (apoptotic Jurkat cells [2]): promoted the formation of apoptotic bodies in a concentration-dependent manner
inhibition of ATP release from apoptotic cells (PANX1 [5]): inhibited ATP release
Escherichia coli growth (Escherichia coli): inhibit bacterial growth
caspase 3/7 activation during apoptosis (caspase 3/7): did not inhibit caspase 3/7 activation
effect on outward current of apoptotic cells (PANX1 [3]): minimal effect on outward current
effect on inward current of apoptotic cells (PANX1 [3]): rapidly inhibited the inward current

apyrase
formation of apoptotic bodies (apoptotic Jurkat cells [2]): did not promote the formation of apoptotic bodies
